Experimental data: patent US12612426B2, “Aryl glucoside derivative” (Shanghai Zheye Biotechnology Co. Ltd., priority 2020, dated 2026)

How the values were obtained:
[1] = Lipid and water solubility of click-chemistry candidate compound compared with Example 4; type: physicochemical
Source text: The compound of Example 4, copper sulfate, and a cyclopropyl azide compound (refer to Chemische Berichte (1985), 118(4), 1564-1574; Science of Synthesis (2010), 41, 543-612; Nature (London, United Kingdom) (2019), 574(7776), 86-89) were stirred and reacted at room temperature, and after the reaction was completed, target compounds could be prepared by silica gel column chromatography. Rf: 0.16 (dichloromethane:methanol=10:1).

[2] = molecular target: T1, SGLT1 (Homo sapiens, UniProt P13866); assay: hSGLT1 inhibitor activity experiment 2: 2-NBDG uptake by HEK293 cells stably expressing human SGLT1; type: cell-based; design: expressed in transfected cells; details: read-out: SGLT1 Inhibitory Activity
T1 sequence (P13866 1-664): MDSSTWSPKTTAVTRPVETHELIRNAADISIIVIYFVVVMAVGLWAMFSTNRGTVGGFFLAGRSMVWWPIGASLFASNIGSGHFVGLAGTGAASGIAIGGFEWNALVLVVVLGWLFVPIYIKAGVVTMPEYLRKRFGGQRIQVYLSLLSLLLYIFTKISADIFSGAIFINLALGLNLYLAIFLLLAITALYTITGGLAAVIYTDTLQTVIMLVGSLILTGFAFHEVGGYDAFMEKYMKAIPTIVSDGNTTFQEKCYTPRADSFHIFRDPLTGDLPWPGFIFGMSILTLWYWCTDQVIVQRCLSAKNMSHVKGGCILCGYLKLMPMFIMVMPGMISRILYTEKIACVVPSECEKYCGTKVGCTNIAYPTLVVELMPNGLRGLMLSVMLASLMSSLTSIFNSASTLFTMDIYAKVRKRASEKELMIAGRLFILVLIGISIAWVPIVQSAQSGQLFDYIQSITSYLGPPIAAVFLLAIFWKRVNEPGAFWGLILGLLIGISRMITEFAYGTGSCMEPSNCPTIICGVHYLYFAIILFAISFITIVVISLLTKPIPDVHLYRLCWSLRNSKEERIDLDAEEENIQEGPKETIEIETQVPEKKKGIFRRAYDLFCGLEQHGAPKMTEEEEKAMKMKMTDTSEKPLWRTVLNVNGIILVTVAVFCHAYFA
Experimental: Inhibitory activity testing was performed with reference to a similar method described in document [Acta Pharmaceutica Sinica 2017, 52 (6): 897-903; Nature Protocols (2007), 2(3), 753-762; Journal of Biochemical and Biophysical Methods (2005), 64(3), 207-215; Diabetes Technology & Therapeutics (2011), 13(7), 743-775].
In this experiment, the in vitro activity assay was evaluated using the uptake of 2-NBDG (2-Deoxy-2-[(7-nitro-2,1,3-benzoxadiazol-4-yl)amino]-D-glucose, CAS NO: 186689-07-6) by human embryonic kidney epithelial cells (HEK293, stably expressing human SGLT1), and the SGLT1 inhibitory activity of the target compound was determined by measuring its half-maximal inhibitory concentration (IC50).
HEK293 cells that can stably express human SGLT1 gene were inoculated into a 96-well clear-bottom black plate containing DMEM medium. The cells were incubated at 37° C., 5% CO2 in a cell incubator. The medium in the 96-well plate was aspirated, and the plate was treated with low-glucose serum-free DMEM medium, and washed once with non-specific uptake buffer and once with Na^+-dependent uptake buffer. Uptake buffer containing test compound was added to each well of cells, followed by uptake buffer containing 2-NBDG for glucose uptake, and the cell plate was incubated at 37° C., 5% CO2. The compounds were gradiently diluted. The uptake reaction was stopped by removing the culture medium, and after washing the cells with ice-cold uptake buffer, the washing solution was removed. The cells were lysed by adding NaOH, and the content of 2-NBDG in the cells was detected by a fluorescence microplate reader. The protein concentration of the lysate was measured by BCA method, the uptake of 2-NBDG was quantified by fluorescence intensity/protein content, and the obtained data were analyzed using GraphPad Prism to determine the median inhibitory concentration (IC50) of the compound to be tested. […]

[3] = Oral glucose tolerance test (OGTT) after continuous administration in rats for 14 days; type: in vivo, SD rats; details: for blood sugar level in OGTT: 0.009 mg/kg oral gavage for 14 days, OGTT on day 15; for loose stools: 0.009 mg/kg oral gavage, within 48 hours before and after the experiment
Experimental: • Experimental animals: SPF male SD rats; • Compound preparation: an appropriate amount of the compounds of Example 1, Example 3, and Example 4 were weighed, and uniformly suspended with an appropriate amount of 0.5% CMC-Na solution; • Preparation of glucose solution: an appropriate amount of glucose powder was weighed and dissolved with an appropriate amount of pure water; • Dosage and method of administration: 0.009 mg/kg, oral gavage.
Experimental process: the animals were fed a normal diet with consecutive administration for 14 days, and the glucose tolerance test was performed on day 15, blood glucose was detected before administration (−30 min), before giving glucose (0 min), and 10, 30, 60, and 120 min after giving glucose solution, and the defecation of animals was observed.

[4] = molecular target: T1, SGLT1; assay: SGLT1 inhibitor activity experiment 1; type: cell-based
Experimental: The inhibitory activity of SGLT1 was tested with reference to the method described in document (Journal of Medicinal Chemistry 2017, 60, 710-721, Discovery of LX2761, a Sodium-Dependent Glucose Cotransporter 1 (SGLT1) Inhibitor Restricted to the Intestinal Lumen, for the Treatment of Diabetes).

[5] = Pharmacokinetic study in rats; type: in vivo, SD rats; details: 10 mg/kg oral gavage
Experimental: 5. Pharmacokinetic Study in Rats • Experimental animals: SPF male SD rats; • Dosage and method of administration: 10 mg/kg, oral gavage. • Research compound: Dapagliflozin, the compound of Example 4, the compound of Example 6, and the comparative compound 6; • Test method: Before administration (0), and 1, 4, 8, and 24 hours after administration, 0.2 ml of blood was collected from orbital venous plexus, anticoagulated with heparin, and plasma was collected.
Note: The comparative compound 6 is the compound numbered “6” in the document (Journal of Medicinal Chemistry 2017, 60, 710-721, Discovery of LX2761, a Sodium-Dependent Glucose Cotransporter 1 (SGLT1) Inhibitor Restricted to the Intestinal Lumen, for the Treatment of Diabetes). It was prepared and identified according to the synthetic method described in the document.

IC50 [2]	IC50 [4]	Compound	further results
	< 50 nM	C#CCN(C)CCNC(=O)C(C)(C)NC(=O)CCOc1ccc(Cc2cc([C@@H]3O[C@H](SC)[C@@H](O)[C@H](O)[C@H]3O)ccc2C)cc1 [Example 5]	
	< 50 nM	C#CCN(C)CCNC(=O)C(C)(C)NC(=O)CCOCc1ccc(Cc2cc([C@@H]3O[C@H](SC)[C@@H](O)[C@H](O)[C@H]3O)ccc2C)cc1 [Example 6]	drug concentration in plasma [5]: did not reach the detection limit
	< 50 nM	C#CCN(C)CCNC(=O)C(C)(C)NC(=O)C/C=C/c1ccc(Cc2cc([C@@H]3O[C@H](SC)[C@@H](O)[C@H](O)[C@H]3O)ccc2C)cc1 [Example 7]	
	< 50 nM	C#CCN(C)CCNC(=O)C(C)(C)NC(=O)CCOc1ccc(Cc2cc([C@@H]3O[C@H](SC)[C@@H](O)[C@H](O)[C@H]3O)ccc2C#C)cc1 [Example 8]	

The next lines start with the compound.

Compound	IC50 [2]	IC50 [4]	further results
CS[C@H]1O[C@@H](c2ccc(C)c(Cc3ccc(CCCC(=O)NC(C)(C)C(=O)NCCN(C)Cc4cn(C5CC5)nn4)cc3)c2)[C@H](O)[C@@H](O)[C@@H]1O			lipid solubility compared with Example 4 [1]: better; water solubility compared with Example 4 [1]: better
CS[C@H]1O[C@@H](c2ccc(C)c(Cc3ccc(CCCC(=O)NC(C)(C)C(=O)NCCN4CCCC4)cc3)c2)[C@H](O)[C@@H](O)[C@@H]1O [Example 1]	0.67 nM		blood sugar level in OGTT [3]: significantly reduce the blood sugar level of rats; loose stools [3]: no loose stools were observed
CS[C@H]1O[C@@H](c2ccc(C)c(Cc3ccc(CCCC(=O)NC(C)(C)C(=O)NCCN4CCN(C)CC4)cc3)c2)[C@H](O)[C@@H](O)[C@@H]1O [Example 2]	1.27 nM		
CS[C@H]1O[C@@H](c2ccc(C)c(Cc3ccc(CCCC(=O)NC(C)(C)C(=O)NCCN(C)Cc4ccccc4)cc3)c2)[C@H](O)[C@@H](O)[C@@H]1O [Example 3]	0.83 nM		blood sugar level in OGTT [3]: significantly reduce the blood sugar level of rats; loose stools [3]: no loose stools were observed
